# In ChEMBL document CHEMBL6103573, “Discovery of novel thienopyridine indole derivatives as inhibitors of tubulin polymerization targeting the colchicine-binding site with potent anticancer activities” (Eur J Med Chem, 2025):
# Activity calls are given as the source filed them. No cut-off for these calls is given here.
# Tests used:
# Tubulin (Homo sapiens) [1] = biological target: T1, Tubulin (Homo sapiens) (UniProt P68371+Q9H4B7+P0DPH7+P68366+Q13509+Q71U36+P04350+Q3ZCM7+P07437+P68363+Q9BQE3+Q6PEY2+Q13885+Q9BVA1+Q9BUF5); experiment: Disruption of microtubule network in human MGC-803 cells assessed as disruption of mitosis at 0.25 to 2.0 nmol/L incubated for 24 hrs by DAPI staining based fluorescence microscopic analysis; assay type: cell-based; conditions: dose 0.25-2 nmol/L
# HGC-27 [2] = experiment: Induction of cell cycle arrest in human HGC-27 cells assessed as accumulation of cells at G2/M phase at 2 nmol/L incubated for 24 hrs by RNase A/propidium iodide staining based flow cytometric analysis relative to control; assay type: functional
# Tubulin (Homo sapiens) [3] = biological target: T1, Tubulin (Homo sapiens); experiment: Inhibition of tubulin (unknown origin) polymerization assessed as decrease in fluorescence intensity at 3 micromol/L in the presence of GTP by fluorescence microplate reader; assay type: protein-complex assay; conditions: dose 3.0 µmol/L
# HGC-27 [4] = experiment: Induction of apoptosis in human HGC-27 cells assessed as late apoptotic cells at 1.5 nmol/L incubated for 48 hrs by Annexin V-FITC/propidium iodide staining based flow cytometry analysis (reference value: 3.70 %); assay type: functional
# Tubulin (Homo sapiens) [5] = biological target: T1, Tubulin (Homo sapiens); experiment: Disruption of microtubule network in human HGC-27 cells assessed as reduction in filamentous microtubule structure formation at 0.25 to 2.0 nmol/L incubated for 24 hrs by DAPI staining based fluorescence microscopic analysis; assay type: cell-based; conditions: dose 0.25-2 nmol/L
# HUVEC [6] = experiment: Anti-angiogenesis activity in HUVEC cells assessed as reduction in cell viability incubated from 12 to 48 hrs by MTT assay; assay type: functional, cell-based; conditions: Homo sapiens, dose < 2.0 nmol/L, time 12-48 hrs
# MGC-803 [7] = experiment: Induction of apoptosis in human MGC-803 cells assessed as early apoptotic cells at 0.5 nmol/L incubated for 48 hrs by Annexin V-FITC/propidium iodide staining based flow cytometry analysis (reference value: 0.83 %); assay type: functional
# HUVEC [8] = experiment: Anti-vascular activity in HUVEC cells assessed as reduction in capillary-like tubules with multi-center junctions incubated for 5 hrs by Matrigel based inverted microscopic analysis; assay type: functional, cell-based; conditions: Homo sapiens, dose 0.5-2 nmol/L
# MGC-803 [9] = experiment: Induction of cell cycle arrest in human MGC-803 cells assessed as downregulation of Cdc2 phosphorylation at Tyr15 residue measured after 48 hrs by Western blot analysis; assay type: functional, cell-based; conditions: dose 0.25-2 nmol/L
# MGC-803 [10] = experiment: Induction of apoptosis in human MGC-803 cells assessed as early apoptotic cells at 2.0 nmol/L incubated for 48 hrs by Annexin V-FITC/propidium iodide staining based flow cytometry analysis (reference value: 0.83 %); assay type: functional
# Huh-7 = experiment: Antiproliferative activity against human Huh-7 cells assessed as inhibition of cell proliferation incubated for 48 hrs by MTT assay; assay type: functional, cell-based; conditions: Huh-7, 48 h
# MGC-803 [11] = experiment: Antitumor activity against human MGC-803 cells xenografted in female BALB/c-nu nude mouse assessed as increase in cleaved PARP level in tumor at 5 mg/kg, po administrated […] for 11 times and measured after 21 days by immunohistochemical analysis; assay type: functional, organism-based; conditions: time 21.0 day
# MGC-803 [12] = experiment: Induction of apoptosis in human MGC-803 cells assessed as increase in nuclei brightness at 0.25 to 2.0 nmol/L incubated for 48 hrs by DAPI staining based analysis; assay type: functional, cell-based; conditions: dose 0.25-2 nmol/L
# MGC-803 [13] = experiment: Induction of apoptosis in human MGC-803 cells assessed as appearance of bright cells at 0.25 to 2.0 nmol/L incubated for 48 hrs by bright field microscopic analysis; assay type: functional, cell-based; conditions: dose 0.25-2 nmol/L
# HGC-27 [14] = experiment: Induction of apoptosis in human HGC-27 cells assessed as late apoptotic cells at 0.25 nmol/L incubated for 48 hrs by Annexin V-FITC/propidium iodide staining based flow cytometry analysis (reference value: 3.70 %); assay type: functional
# MGC-803 [15] = experiment: Induction of cell cycle arrest in human MGC-803 cells assessed as downregulation of Cdc25c level measured after 48 hrs by Western blot analysis; assay type: functional, cell-based; conditions: dose 0.25-2 nmol/L
# MDA-MB-231 = experiment: Antiproliferative activity against human MDA-MB-231 cells assessed as inhibition of cell proliferation incubated for 48 hrs by MTT assay; assay type: functional, cell-based; conditions: MDA-MB-231, 48 h
# [16] = biological target: Tubulin beta (Homo sapiens) (UniProt P68371+Q9H4B7+Q13509+P04350+Q3ZCM7+P07437+Q13885+Q9BVA1+Q9BUF5+A6NNZ2); experiment: Competitive binding affinity to beta-tubulin colchicine binding site in human MGC-803 cells assessed as inhibition of EBI-beta-tubulin adduct band formation at 1 umol/L preincubated for 2 hrs followed by EBI addition and measured after 2 hrs by Western blotting analysis; assay type: cell-based; conditions: dose 1.0 µmol/L, time 4.0 hrs
# HGC-27 [17] = experiment: Induction of cell cycle arrest in human HGC-27 cells assessed as downregulation of Cdc25c level measured after 48 hrs by Western blot analysis; assay type: functional, cell-based; conditions: dose 0.25-2 nmol/L
# [18] = Toxicity in female BALB/c-nu nude mouse xenografted with human MGC-803 cells assessed as change in liver morphology at 5 mg/kg, po administrated every other day for 11 times and measured after 21 days by hematoxylin and eosin staining based analysis; assay type: organism-based; conditions: in vivo, 504 h, time 21 day
# MGC-803 [19] = experiment: Inhibition of colony formation in human MGC-803 cells incubated for 7 days by crystal violet staining based colony formation assay; assay type: functional, cell-based; conditions: dose 0.1-0.5 nmol/L, time 7.0 day
# ECa-109 cell line = experiment: Antiproliferative activity against human EC109 cells assessed as inhibition of cell proliferation incubated for 48 hrs by MTT assay; assay type: functional, cell-based; conditions: ECa-109, 48 h
# [20] = Toxicity in female BALB/c-nu nude mouse xenografted with human MGC-803 cells assessed as body weight loss at 5 mg/kg, po administrated every other day for 11 times and measured after 21 days; assay type: organism-based; conditions: in vivo, 504 h, time 21 day
# HGC-27 [21] = experiment: Induction of cell cycle arrest in human HGC-27 cells assessed as downregulation of Wee1 level measured after 48 hrs by Western blot analysis; assay type: functional, cell-based; conditions: dose 0.25-2 nmol/L
# KYSE-450 = experiment: Antiproliferative activity against human KYSE-450 cells assessed as inhibition of cell proliferation incubated for 48 hrs by MTT assay; assay type: functional, cell-based; conditions: KYSE-450, 48 h
# MGC-803 [22] = experiment: Induction of apoptosis in human MGC-803 cells assessed as late apoptotic cells at 0.5 nmol/L incubated for 48 hrs by Annexin V-FITC/propidium iodide staining based flow cytometry analysis (reference value: 2.22 %); assay type: functional
# MGC-803 [23] = experiment: Induction of cell cycle arrest in human MGC-803 cells assessed as accumulation of cells at G2/M phase incubated for 24 hrs by RNase A/propidium iodide staining based flow cytometric analysis; assay type: functional; conditions: dose 0.25-2 nmol/L
# HGC-27 [24] = experiment: Induction of cell cycle arrest at G2 phase in human HGC-27 cells assessed as downregulation of Cyclin B1 level at 0.25 to 2.0 nmol/L measured after 48 hrs by Western blot analysis; assay type: functional, cell-based; conditions: dose 0.25-2 nmol/L
# MCF7 = experiment: Antiproliferative activity against human MCF7 cells assessed as inhibition of cell proliferation incubated for 48 hrs by MTT assay; assay type: functional, cell-based; conditions: MCF7, 48 h
# MGC-803 [25] = experiment: Induction of apoptosis in human MGC-803 cells assessed as increase in dead to live cells ratio at 0.25 to 2.0 nmol/L incubated for 48 hrs by Calcein-AM/PI staining based analysis; assay type: functional, cell-based; conditions: dose 0.25-2 nmol/L
# Tubulin (Homo sapiens) [26] = biological target: T1, Tubulin (Homo sapiens); experiment: Disruption of microtubule network in human HGC-27 cells assessed as irregular cellular morphology at 0.25 to 2.0 nmol/L incubated for 24 hrs by DAPI staining based fluorescence microscopic analysis; assay type: cell-based; conditions: dose 0.25-2 nmol/L
compound,measurement,setting,value
CN(c1ccc2c(ccn2C)c1)c1nc(N2CCCC2)nc2sccc12,Activity,Tubulin (Homo sapiens) [1],Active
same,Activity,HGC-27 [2],43.9%
same,inhibition,Tubulin (Homo sapiens) [3],Active
same,Activity,HGC-27 [4],5.22%
same,Activity,Tubulin (Homo sapiens) [5],Active
same,Activity,HUVEC [6],Dose-dependent-effect
same,Activity,MGC-803 [7],3.33%
same,Activity,HUVEC [8],Dose-dependent-effect
same,Activity,MGC-803 [9],Dose-dependent-effect
same,Activity,MGC-803 [10],54.93%
same,IC50,Huh-7,2.09 nM
same,Activity,MGC-803 [11],Active
same,Activity,MGC-803 [12],Active
same,Activity,MGC-803 [13],Active
same,Activity,HGC-27 [14],3.14%
same,Activity,MGC-803 [15],Dose-dependent-effect
same,IC50,MDA-MB-231,2.58 nM
same,Activity,[16],Active; Stronger Affinity Observed
same,Activity,HGC-27 [17],Dose-dependent-effect
same,Activity,[18],Non-toxic
same,inhibition,MGC-803 [19],Dose-dependent-effect
same,IC50,ECa-109 cell line,2.19 nM
same,Activity,[20],Non-toxic
same,Activity,HGC-27 [21],Dose-dependent-effect
same,IC50,KYSE-450,3.16 nM
same,Activity,MGC-803 [22],2.84%
same,Activity,MGC-803 [23],Dose-dependent-effect
same,Activity,HGC-27 [24],Active
same,IC50,MCF7,1.85 nM
same,Activity,MGC-803 [25],Active
same,Activity,Tubulin (Homo sapiens) [26],Active
